Patent US6613745B1, “Therapeutic molecules derived from snake venom” (National University of Singapore, priority 1997, dated 2003)
Entries after “also recorded” stand apart in the source; their conditions may differ. Peptide text beside a SMILES is read from it.

System: chick biventer muscle
Assay: Chick biventral experiment: contractile (twitch) responses evoked by electrical field stimulation
Design: species or system Gallus domesticus

C[C@@H](O)[C@H](NC(=O)[C@@H]1CCCN1C(=O)[C@H](Cc1ccccc1)NC(=O)[C@@H]1CCCN1C(=O)[C@@H](N)CC(N)=O)C(=O)N[C@@H](Cc1c[nH]c2ccccc12)C(=O)N[C@@H](CCCNC(=N)N)C(=O)N[C@@H](CCCCN)C(=O)N[C@@H](CCCNC(=N)N)C(=O)N1CCC[C@H]1C(=O)NCC(=O)O [synthesized peptide, Asn-Pro-Phe-Pro-Thr-Trp-Arg-Lys-Arg-Pro-Gly] (H-NPFPTWRKRPG-OH) was tested, and the “contractile (twitch) response of chick biventer evoked by electrical field stimulation” value (10 μg peptide added, EFS 25 V, 5 Hz×10s, 1 ms pulse width, every 100s, FIG. 1, listed as analgesic peptide) was “no change; also recorded: no effect” and the “neurotoxic effect on the neuromuscular junction” value (10 μg peptide, concluded from FIG. 1) was “no neurotoxic effect”.
